Experimental data published in the NIST ThermoML archive (doi:10.1016/j.jct.2017.02.014).

Assays:
[1] = heat capacity at constant pressure per volume; xn = mol fraction of the nth substance listed; conditions: 102.6 kPa, Liquid, DSC, x1 = 0.118
[2] = refractive index (other wavelength) (dimensionless); xn = mol fraction of the nth substance listed; conditions: 100 kPa, Liquid, Wavelength=632.8 nm, minimum deviation angle method

CCCC[n+]1ccccc1.F[B-](F)(F)F [1-butylpyridinium tetrafluoroborate] + CCO
[1]
Conditions	heat capacity [J/K/m3]
291.64 K	2400000
291.84 K	2413000
292.04 K	2409000
292.24 K	2412000
292.44 K	2447000
292.64 K	2446000
292.84 K	2430000
293.04 K	2446000
293.24 K	2456000
293.44 K	2452000
293.64 K	2454000
293.84 K	2466000
294.04 K	2479000
294.24 K	2512000
294.44 K	2465000
294.64 K	2512000
294.84 K	2537000
295.04 K	2539000
295.24 K	2557000
295.44 K	2564000
295.64 K	2619000
295.84 K	2578000
296.04 K	2655000
296.24 K	2606000
296.44 K	2659000
296.64 K	2847000
296.86 K	2825000
297.04 K	2338000
297.24 K	2271000
297.44 K	2220000
297.64 K	2228000
297.84 K	2203000
298.04 K	2201000
298.24 K	2198000
298.44 K	2180000
298.64 K	2187000
298.84 K	2145000
299.04 K	2169000
299.24 K	2164000
299.44 K	2169000
299.64 K	2152000
299.84 K	2153000
300.04 K	2150000
300.24 K	2151000
300.44 K	2144000
300.64 K	2130000
300.84 K	2137000
301.24 K	2132000
301.44 K	2139000
301.64 K	2140000
301.84 K	2124000
302.04 K	2130000
302.24 K	2117000
302.44 K	2124000
302.64 K	2130000
302.84 K	2122000
303.04 K	2129000
303.24 K	2131000
303.44 K	2121000
303.63 K	2121000
303.83 K	2127000
304.04 K	2126000
304.24 K	2122000
304.44 K	2130000
304.63 K	2120000
304.83 K	2123000
305.04 K	2117000
305.24 K	2113000
305.44 K	2107000
305.63 K	2112000
306.08 K	2110000
306.51 K	2108000
306.95 K	2108000
307.39 K	2107000
307.83 K	2106000
308.26 K	2106000
308.7 K	2105000
309.14 K	2104000
309.58 K	2104000
310.02 K	2104000
310.45 K	2104000
310.89 K	2105000
311.33 K	2103000
311.77 K	2102000
312.2 K	2102000
312.64 K	2102000
313.08 K	2103000
313.52 K	2101000
313.96 K	2103000
314.39 K	2101000
314.83 K	2103000
315.27 K	2102000
315.71 K	2103000
316.14 K	2102000
316.58 K	2103000
317.02 K	2103000
317.46 K	2103000
317.89 K	2105000
318.33 K	2104000
318.77 K	2106000
319.21 K	2105000
319.65 K	2107000
320.08 K	2107000
320.52 K	2108000
320.96 K	2109000
321.4 K	2109000
321.84 K	2109000
322.27 K	2110000
322.71 K	2111000
323.15 K	2110000

[2]
Conditions	refractive index
281.73 K, x1 = 1	1.4481
282.78 K, x1 = 1	1.4478
284.05 K, x1 = 0.518	1.4307
284.14 K, x1 = 1	1.4475
284.68 K, x1 = 0.394	1.4224
285.33 K, x1 = 0.518	1.4304
285.74 K, x1 = 1	1.4471
286.42 K, x1 = 0.394	1.4219
286.94 K, x1 = 1	1.4468
287.46 K, x1 = 0.02	1.3684
287.51 K, x1 = 0.518	1.4298
287.68 K, x1 = 0.394	1.4215
288.24 K, x1 = 1	1.4464
288.69 K, x1 = 0.518	1.4295
288.71 K, x1 = 0.02	1.3679
289.37 K, x1 = 0.394	1.4211
289.38 K, x1 = 1	1.4461
289.82 K, x1 = 0.02	1.3675
290.14 K, x1 = 0.518	1.429
290.31 K, x1 = 0.394	1.4207
290.37 K, x1 = 1	1.4458
290.46 K, x1 = 0.313	1.414
291.26 K, x1 = 0.02	1.3669
291.42 K, x1 = 0.394	1.4204
291.42 K, x1 = 0.518	1.4287
292.08 K, x1 = 0.313	1.4134
292.15 K, x1 = 1	1.4454
292.64 K, x1 = 0.02	1.3663
293.1 K, x1 = 0.313	1.4131
293.41 K, x1 = 1	1.4451
294.23 K, x1 = 0.313	1.4128
294.38 K, x1 = 0.02	1.3657
295 K, x1 = 1	1.4446
295.32 K, x1 = 0.313	1.4124
296.19 K, x1 = 0.258	1.4062
296.35 K, x1 = 0.199	1.3993
296.35 K, x1 = 0.313	1.4121
296.89 K, x1 = 1	1.444
296.98 K, x1 = 0.06	1.3745
296.98 K, x1 = 0.142	1.3902
297.25 K, x1 = 0.095	1.3817
297.52 K, x1 = 0.258	1.4056
298.06 K, x1 = 0.142	1.3899
298.21 K, x1 = 0.06	1.374
298.51 K, x1 = 0.199	1.3986
298.56 K, x1 = 0.095	1.3813
298.9 K, x1 = 0.258	1.4052
299.34 K, x1 = 0.142	1.3895
299.43 K, x1 = 0.06	1.3736
299.58 K, x1 = 0.199	1.3982
299.67 K, x1 = 0.095	1.3809
299.98 K, x1 = 0.258	1.4048
300.34 K, x1 = 0.142	1.3892
300.79 K, x1 = 0.095	1.3805
300.89 K, x1 = 0.06	1.3731
300.95 K, x1 = 0.258	1.4046
301.1 K, x1 = 0.199	1.3977
301.77 K, x1 = 0.095	1.3802
301.77 K, x1 = 0.142	1.3886
301.92 K, x1 = 0.258	1.4043
302.08 K, x1 = 0.06	1.3726
302.16 K, x1 = 0.199	1.3974
302.93 K, x1 = 0.095	1.3798
302.94 K, x1 = 0.142	1.3883
303.3 K, x1 = 0.199	1.397
303.31 K, x1 = 0.06	1.3722
